The text below walks through data of patent publication US20220233708A1, “ANTIBODY-DRUG CONJUGATE, INTERMEDIATE THEREOF, PREPARATION METHOD THEREFOR AND APPLICATION THEREOF” (priority 2019, published 2022).

Starred links: 1 amine or outer side, 2 acyl side, 3 side chain; linkers in the order of their positions; H or OH if unused. Non-standard residues stand in square brackets, D forms with d. Residues, ends and D or L forms follow the SMILES beside them. *: point of attachment. Exatecan = CC[C@@]1(O)C(=O)OCc2c1cc1n(c2=O)Cc2c-1nc1cc(F)c(C)c3c1c2[C@@H](N*)CC3; X2 = CC[C@@]1(O)C(=O)OC(=O)C2=C1C=C1c3nc4cc(F)c(C)c5c4c(c3CN1C2)[C@@H](N*)CC5; Hexanoyl(6-maleimido) = O=C1C=CC(=O)N1CCCCCC(=O)*; X3 = O=C1C=CC(=O)N1CC1CCC(C(=O)*)CC1; X1 = O=C1C=C(Br)C(=O)N1CCCCCC(=O)*; NHCH2OCH2CO = O=C(COCN[*:1])[*:2]

Assay type in all cases: physicochemical
In one data set the test system is anti-B7-H3 antibody P2E5. Briefly: Coupling of linker-drug conjugates with P2E5. The conditions noted are these: coupling with P2E5, highest DAR (excessive coupling). As for the experimental part: (§1) The anti-B7-H3 antibody P2E5, anti-Claudin18.2 antibody IMAB362, and anti-HER2 antibody Trastuzumab (concentration was 15 mg/mL) were replaced into 50 mM PB/1.0 mM EDTA buffer (pH 7.0) by a G25 desalting column, respectively. 12 equivalents of TECP was added and the mixture was stirred at 37° C. for 2 hours to fully open the disulfide bonds between the antibody chains. Then phosphoric acid was used to adjust the pH of the reduced antibody solution to 6.0, and the temperature of the water bath was lowered to 25° C. for coupling reaction. […] After the reaction was completed, the sample was filtered with a 0.22 μm membrane. Uncoupled small molecules were purified and removed by a tangential flow ultrafiltration system. The buffer was 50 mM PB/1.0 mM EDTA solution (pH 6.0). After purification, sucrose (final concentration was 6%) was added, and the mixture was stored in a refrigerator at −20° C. The UV method was used to measure the absorbance values at 280 nm and 370 nm respectively, and the DAR value was calculated.

In data set [1] the test system is anti-Claudin18.2 antibody IMAB362. Briefly: Coupling of linker-drug conjugates with IMAB362. As to conditions: coupling with IMAB362, highest DAR (excessive coupling). As for the experimental part: as §1
Data set [2] concerns anti-HER2 antibody Trastuzumab. As to the kind of experiment: Coupling of linker-drug conjugates with Trastuzumab. As to conditions: highest DAR (excessive coupling). As for the experimental part: as §1

For `CC[C@@]1(O)C(=O)OCc2c1cc1n(c2=O)Cc2c-1nc1cc(F)c(C)c3c1c2[C@@H](NC(=O)COCNC(=O)CNC(=O)[C@H](Cc1ccccc1)NC(=O)CNC(=O)CNC(=O)C1CCC(CN2C(=O)C=CC2=O)CC1)CC3` (stereo partly drawn) [LE01] (X3-GGFG[NHCH2OCH2CO]-Exatecan), the Ratio of aggregates is on record as 2.1% with anti-B7-H3 antibody P2E5, 2.0% in data set [1] and 0.2% in data set [2]. Also, the Whether precipitation entry (in the data set with anti-B7-H3 antibody P2E5; in data set [1]; in data set [2]) was “No” in each case.
As for `CCC1(O)C(=O)OC(=O)C2=C1C=C1c3nc4cc(F)c(C)c5c4c(c3CN1C2)C(NC(=O)COCNC(=O)CNC(=O)C(Cc1ccccc1)NC(=O)CNC(=O)CNC(=O)C(CCCCN1C(=O)C=CC1=O)S(=O)(=O)O)CC5` (stereo not drawn) [LE02], the Ratio of aggregates stood at 1.3% in the data set on anti-B7-H3 antibody P2E5, 1.8% in data set [1] and 0.2% in data set [2]. The Whether precipitation result (in the data set with anti-B7-H3 antibody P2E5; in data set [1]; in data set [2]) was “No” in each case.
Consider `CCC1(O)C(=O)OC(=O)C2=C1C=C1c3nc4cc(F)c(C)c5c4c(c3CN1C2)C(NC(=O)COCNC(=O)CNC(=O)C(Cc1ccccc1)NC(=O)CNC(=O)CNC(=O)C(CN)N1C(=O)C=CC1=O)CC5` (stereo not drawn) [LE03], for which the Ratio of aggregates is recorded as 1.1% in the data set with anti-B7-H3 antibody P2E5, 1.5% in data set [1] and 0.2% in data set [2]. The Whether precipitation result (in the data set with anti-B7-H3 antibody P2E5; in data set [1]; in data set [2]) was “No” throughout.
Consider `CCC1(O)C(=O)OC(=O)C2=C1C=C1c3nc4cc(F)c(C)c5c4c(c3CN1C2)C(NC(=O)COCNC(=O)CNC(=O)C(Cc1ccccc1)NC(=O)CNC(=O)CNC(=O)CCOCCOCCOCCOCCOCCOCCOCCOCCN1C(=O)C=CC1=O)CC5` (stereo not drawn) [LE04], for which the Ratio of aggregates in the data set on anti-B7-H3 antibody P2E5 is on record as 2.5%; in data set [1] it was 2.1%; in data set [2] it was 0.1%. Moreover, the Whether precipitation result (in the data set with anti-B7-H3 antibody P2E5; in data set [1]; in data set [2]) was “No” throughout.
Take `CC[C@@]1(O)C(=O)OCc2c1cc1n(c2=O)Cc2c-1nc1cc(F)c(C)c3c1c2[C@@H](NC(=O)COCNC(=O)CNC(=O)[C@H](Cc1ccccc1)NC(=O)CNC(=O)CNC(=O)CCCCCN1C(=O)C=C(Br)C1=O)CC3` [LE05] (X1-GGFG[NHCH2OCH2CO]-Exatecan): the figures for the Ratio of aggregates (in the data set on anti-B7-H3 antibody P2E5; in data set [1]; in data set [2]) were 1.6%, 2.3% and 0.1%, respectively. Also, the Whether precipitation result (with anti-B7-H3 antibody P2E5; in data set [1]; in data set [2]) was “No” each time.
Consider `CC[C@@]1(O)C(=O)OC(=O)C2=C1C=C1c3nc4cc(F)c(C)c5c4c(c3CN1C2)[C@@H](NC(=O)COCNC(=O)CNC(=O)[C@H](Cc1ccccc1)NC(=O)CNC(=O)CNC(=O)[C@H](CCCCN)NC(=O)CCCCCN1C(=O)C=CC1=O)CC5` [LE06] ({Hexanoyl(6-maleimido)}-KGGFG[NHCH2OCH2CO]-X2), for which the Ratio of aggregates in the data set with anti-B7-H3 antibody P2E5 stood at 1.2%; in data set [1], 1.7%; in data set [2] it was 0.5%. The Whether precipitation entry (in the data set with anti-B7-H3 antibody P2E5; in data set [1]; in data set [2]) was “No” throughout.
As for `CC[C@@]1(O)C(=O)OCc2c1cc1n(c2=O)Cc2c-1nc1cc(F)c(C)c3c1c2[C@@H](NC(=O)COCNC(=O)CNC(=O)[C@H](Cc1ccccc1)NC(=O)CNC(=O)[C@H](CCCCN)NC(=O)CCCCCN1C(=O)C=CC1=O)CC3.O=C(O)C(F)(F)F` [LE07] ({Hexanoyl(6-maleimido)}-KGFG[NHCH2OCH2CO]-Exatecan), the Ratio of aggregates in the data set with anti-B7-H3 antibody P2E5 stood at 1.3%; in data set [1] it was 1.6%; in data set [2] it was 0.5%. In addition, the Whether precipitation result (in the data set on anti-B7-H3 antibody P2E5; in data set [1]; in data set [2]) was “No” each time.
Take `CC[C@@]1(O)C(=O)OC(=O)C2=C1C=C1c3nc4cc(F)c(C)c5c4c(c3CN1C2)[C@@H](NC(=O)COCN(CCN(C)C)C(=O)OCc1ccc(NC(=O)[C@H](C)NC(=O)[C@@H](NC(=O)CCCCCN2C(=O)C=CC2=O)C(C)C)cc1)CC5` [LE13]: the Ratio of aggregates in the data set with anti-B7-H3 antibody P2E5 was 1.5%; in data set [1], 2.3%; in data set [2] it was 0.1%. The Whether precipitation result (in the data set on anti-B7-H3 antibody P2E5; in data set [1]; in data set [2]) was “No” throughout.
Turning to `CC[C@@]1(O)C(=O)OC(=O)C2=C1C=C1c3nc4cc(F)c(C)c5c4c(c3CN1C2)[C@@H](NC(=O)COCN(CCS(C)(=O)=O)C(=O)OCc1ccc(NC(=O)[C@H](C)NC(=O)[C@@H](NC(=O)C(CCCCN2C(=O)C=CC2=O)S(=O)(=O)O)C(C)C)cc1)CC5` (stereo partly drawn) [LE15], the Ratio of aggregates in the data set on anti-B7-H3 antibody P2E5 worked out at 2.1%; in data set [1], 1.6%; in data set [2], 0.2%. The Whether precipitation entry (in the data set with anti-B7-H3 antibody P2E5; in data set [1]; in data set [2]) was “No” each time.
Consider `CC[C@@]1(O)C(=O)OC(=O)C2=C1C=C1c3nc4cc(F)c(C)c5c4c(c3CN1C2)[C@@H](NC(=O)COCN(CCS(C)(=O)=O)C(=O)OCc1ccc(NC(=O)[C@H](C)NC(=O)[C@@H](NC(=O)C2CCC(CN3C(=O)C=CC3=O)CC2)C(C)C)cc1)CC5` (stereo partly drawn) [LE16], for which the Ratio of aggregates in the data set with anti-B7-H3 antibody P2E5 was 2.0%; in data set [1], 1.5%; in data set [2], 0.5%. Also, the Whether precipitation result (with anti-B7-H3 antibody P2E5; in data set [1]; in data set [2]) was “No” in each case.
With `CC[C@@]1(O)C(=O)OC(=O)C2=C1C=C1c3nc4cc(F)c(C)c5c4c(c3CN1C2)[C@@H](NC(=O)COCN(CCN(C)C)C(=O)OCc1ccc(NC(=O)[C@H](C)NC(=O)[C@@H](NC(=O)C2CCC(CN3C(=O)C=CC3=O)CC2)C(C)C)cc1)CC5` (stereo partly drawn) [LE17], the values for the Ratio of aggregates (with anti-B7-H3 antibody P2E5; in data set [1]; in data set [2]) were 1.5%, 1.6% and 0.1%, respectively. For the same compound, the Whether precipitation result (in the data set on anti-B7-H3 antibody P2E5; in data set [1]; in data set [2]) was “No” each time.
Take `CC[C@@]1(O)C(=O)OC(=O)C2=C1C=C1c3nc4cc(F)c(C)c5c4c(c3CN1C2)[C@@H](NC(=O)COCN(CCS(C)(=O)=O)C(=O)OCc1ccc(NC(=O)[C@H](C)NC(=O)[C@@H](NC(=O)CCCn2cc(CNC3CCC(CN4C(=O)C=CC4=O)CC3)nn2)C(C)C)cc1)CC5` (stereo partly drawn) [LE18]: the Ratio of aggregates was 1.6% with anti-B7-H3 antibody P2E5, 2.1% in data set [1] and 0.1% in data set [2]. The Whether precipitation result (in the data set with anti-B7-H3 antibody P2E5; in data set [1]; in data set [2]) was “No” throughout.
As to `CC[C@@]1(O)C(=O)OC(=O)C2=C1C=C1c3nc4cc(F)c(C)c5c4c(c3CN1C2)[C@@H](NC(=O)COCN(CCS(C)(=O)=O)C(=O)OCc1ccc(NC(=O)[C@H](C)NC(=O)[C@@H](NC(=O)CCCn2cc(CNC(=O)CCCCCN3C(=O)C=CC3=O)nn2)C(C)C)cc1)CC5` [LE19], the results for the Ratio of aggregates (with anti-B7-H3 antibody P2E5; in data set [1]; in data set [2]) were 1.2%, 1.4% and 0.2%, respectively. Further, the Whether precipitation result (in the data set on anti-B7-H3 antibody P2E5; in data set [1]; in data set [2]) was “No” each time.
Turning to `CC[C@@]1(OCN(CCS(C)(=O)=O)C(=O)OCc2ccc(NC(=O)[C@H](C)NC(=O)[C@@H](NC(=O)CCCCCN3C(=O)C=CC3=O)C(C)C)cc2)C(=O)OCc2c1cc1n(c2=O)Cc2c-1nc1cc(F)c(C)c3c1c2[C@@H](NC(=O)CO)CC3` [LE21], the Ratio of aggregates in the data set with anti-B7-H3 antibody P2E5 was determined as 2.2%; in data set [1], 2.3%; in data set [2], 0.2%. Besides, the Whether precipitation result (with anti-B7-H3 antibody P2E5; in data set [1]; in data set [2]) was “No” throughout.
As for `CC[C@@]1(OCN(CCN(C)C)C(=O)OCc2ccc(NC(=O)[C@H](C)NC(=O)[C@@H](NC(=O)CCCCCN3C(=O)C=CC3=O)C(C)C)cc2)C(=O)OCc2c1cc1n(c2=O)Cc2c-1nc1cc(F)c(C)c3c1c2[C@@H](NC(=O)CO)CC3` [LE22], the results for the Ratio of aggregates (in the data set with anti-B7-H3 antibody P2E5; in data set [1]; in data set [2]) were 2.1%, 1.5% and 0.5%, respectively. In addition, the Whether precipitation result (in the data set with anti-B7-H3 antibody P2E5; in data set [1]; in data set [2]) was “No” each time.
On to `CC[C@@]1(O)C(=O)OCc2c1cc1n(c2=O)Cc2c-1nc1cc(F)c(C)c3c1c2[C@@H](NC(=O)COCNC(=O)CNC(=O)[C@H](Cc1ccccc1)NC(=O)[C@H](C)NC(=O)[C@@H](NC(=O)CCCCCN1C(=O)C=CC1=O)C(C)C)CC3` [LE23] ({Hexanoyl(6-maleimido)}-VAFG[NHCH2OCH2CO]-Exatecan), for which the Ratio of aggregates in the data set with anti-B7-H3 antibody P2E5 was 1.9%; in data set [1] it was 1.6%; in data set [2] it was 0.1%. Besides, the Whether precipitation entry (in the data set with anti-B7-H3 antibody P2E5; in data set [1]; in data set [2]) was “No” each time.
